Patent publication US10660903B2, “Orodispersible dosage unit containing an estetrol component” (ESTETRA SPRL, priority 2015, dated 2020)

Assays:
[1] = system: DMBA mammary tumour; settings: extent and dose level similar to tamoxifen and to ovariectomy; cited from earlier work
[2] = Randomized, open-label, two-period, cross-over pharmacokinetic study, sublingual versus oral estetrol; format: in vivo, human; settings: 10 mg estetrol; sublingual vs oral; healthy female volunteers
Description: A randomized, open-label, two-period, cross-over, pharmacokinetic study is conducted to compare sublingual bioavailability of 10 mg estetrol administered in one 100 mg tablet with oral availability of estetrol contained in a 83 mg tablet containing 10 mg estetrol. These tablets are administered sublingually and orally to healthy female volunteers under fasting conditions.
Ten healthy female subjects are selected on the basis of the following criteria: age of 45-65 years (inclusive), nonsmokers or past smokers (at least 6 months before dosing), body-mass index (BMI)=18.5 to 30 kg/m^2 (inclusive at the time of the screening).
At the start of the first and the second period of the study, between 07:00 am and 07:28 am, 5 subjects receive a single dose of the sublingual formulation of estetrol by administering one estetrol tablet (tablet weight 100 mg; 10 mg estetrol) and 5 subjects receive a single oral dose of the oral estetrol formulation by administering one estetrol tablet (tablet weight 83 mg; 10 mg estetrol), ingested together with 200 ml water. […]
The estetrol concentration in the collected blood samples is determined by means of HPLC/MS/MS. The concentrations of glucuronided estetrol (D-ring) in the urine samples is also determined with the help of HPLC/MS/MS.

[3] = humans; cited from earlier work
[4] = Particle size distribution by laser diffraction (Malvern Mastersizer Microplus); format: physicochemical; settings: milled estetrol used in the tablets
Description: The particles size distribution of the estetrol particles, and of other particulate materials used in the present process, may suitably be determined by means of laser diffraction. The particle size distribution of the estetrol particles within the solid dosage unit can suitably be determined using spectroscopic techniques, e.g. Raman mapping.
Particle size distribution of estetrol monohydrate is performed using a MALVERN MASTERS IZER MICROPLUS laser particle size analyzer.
• Weigh 1 g of estetrol monohydrate and 1 g of sorbitan trioleate into a flask. • Add 1 litre of n-hexane and mix for at least 1 hour at room temperature • Filter through a 0.45 μm filter.
• Put 100 mg of sample in a 25 mL beaker. • Add some drops of dispersion medium. • Mix carefully with a glass rod to suspend well the powder. • Add 10 mL of dispersion medium. • Perform the analysis with the sample dispersion unit's speed at 3000-3500 rpm.
Particle size measurements are performed three times using the same dispersion. The final result is obtained by averaging the results of the three determinations.

[5] = system: human breast cancer cells; settings: in the presence of 17β-estradiol; cited from earlier work
[6] = system: estrogen receptors; settings: in vitro; cited from earlier work
[7] = system: production of SHBG; settings: in vitro; cited from earlier work
[8] = system: vagina, uterus, body weight, bone mass, bone strength, hot flushes, ovulation; settings: rat models; dose-dependent; cited from earlier work
[9] = target: T1, sex hormone binding globulin (SHBG) (Homo sapiens, UniProt P04278); settings: cited from earlier work
T1 sequence (P04278 30-402): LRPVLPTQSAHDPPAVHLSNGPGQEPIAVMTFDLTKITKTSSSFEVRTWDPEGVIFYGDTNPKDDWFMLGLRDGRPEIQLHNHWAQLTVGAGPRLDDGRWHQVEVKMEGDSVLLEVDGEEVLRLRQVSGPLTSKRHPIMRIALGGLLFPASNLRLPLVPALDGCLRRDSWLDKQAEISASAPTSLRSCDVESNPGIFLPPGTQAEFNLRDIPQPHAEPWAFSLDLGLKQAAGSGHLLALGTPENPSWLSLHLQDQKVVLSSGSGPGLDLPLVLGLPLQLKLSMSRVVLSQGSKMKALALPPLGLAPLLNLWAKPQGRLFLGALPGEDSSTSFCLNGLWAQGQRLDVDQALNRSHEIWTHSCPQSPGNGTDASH

## C[C@]12CC[C@@H]3c4ccc(O)cc4CC[C@H]3[C@@H]1[C@@H](O)[C@@H](O)[C@@H]2O [estetrol, 1,3,5 (10)-estratrien-3,15α,16α,17β-tetrol]
[1]
  tumour development: prevented tumour development
[2]
  impact on a liver function parameter, sublingual versus oral estetrol: less impact
[3]
  oral bioavailability: high and dose-proportional
  terminal elimination half-life: about 28 hours
[4]
  D (v;0.5) (volume median diameter): ^1 D (v;0.5) = 15 μm
[5]
  anti-estrogenic effect: anti-estrogenic effect
[6]
  binding to the estrogen receptors, selectivity: binds highly selective to the estrogen receptors with preference for the ERa form of the receptor
[7]
  stimulation of the production of SHBG: does not stimulate
[8]
  estrogenic effects on vagina, uterus, body weight, bone mass, bone strength, hot flushes and ovulation: exhibited estrogenic effects
[9]
  binding to SHBG: does not bind
